What all share (type): cell-based
Assay [1] deals with T1, hGIPR (Homo sapiens, UniProt P48546).
T1 construct: expressed in transfected cells
T1 sequence (P48546 22-466): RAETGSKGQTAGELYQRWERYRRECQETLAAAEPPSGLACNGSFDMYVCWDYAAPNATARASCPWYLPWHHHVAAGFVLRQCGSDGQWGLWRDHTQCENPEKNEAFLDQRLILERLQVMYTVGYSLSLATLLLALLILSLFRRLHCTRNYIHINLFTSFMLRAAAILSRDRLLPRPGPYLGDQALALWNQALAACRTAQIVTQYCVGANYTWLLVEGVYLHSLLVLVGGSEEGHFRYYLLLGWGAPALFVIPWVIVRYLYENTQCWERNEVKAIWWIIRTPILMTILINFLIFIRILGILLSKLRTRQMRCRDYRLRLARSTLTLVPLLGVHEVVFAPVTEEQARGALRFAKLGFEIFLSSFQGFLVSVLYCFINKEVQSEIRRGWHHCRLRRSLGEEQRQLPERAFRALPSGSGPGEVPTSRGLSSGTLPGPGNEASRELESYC
Kind of assay: Functional cAMP formation (HTRF) in HEK-293 clonal cells expressing hGIPR, 0.1% bovine casein, without or with 1.0% human serum albumin. Particulars: 37° C.; for EC50: cAMP, read-out: hGIPR EC50, nM (SEM, n). The method in brief:
(§1)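 Cells were stimulated with peptide for 30 min at 37° C, then lysed in buffer carrying cAMP-d2 and anti-cAMP Eu3+-cryptate for a competitive HTRF read after at least 60 min at room temperature. The 665/620 nm ratio was converted to nM cAMP against a standard curve.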

Assay [2] has as its target T2, hGCGR (Homo sapiens, UniProt P47871).
T2 construct: expressed in transfected cells
Kind of assay: Functional cAMP formation (HTRF) in HEK-293 clonal cells expressing hGCGR, 0.1% bovine casein, without or with 1.0% human serum albumin. In a few lines: as §1

Assay [3] deals with hGLP-1R (Homo sapiens, UniProt P43220). Kind of assay: Functional cAMP formation (HTRF) in HEK-293 clonal cells expressing hGLP-1R, 0.1% bovine casein, without or with 1.0% human serum albumin. On the set-up: expressed in transfected cells. The conditions noted are these: for EC50: cAMP, 0.1% bovine casein (no human serum albumin), geometric mean; for Emax: percent of maximal response to GLP-1(7-36)NH2, read-out: hGLP-1R Emax, % ± SEM. In a few lines:
as §1

[4] abbreviates: HEK293, cAMP, 0.1% bovine casein and 1.0% human serum albumin, percent of maximal response to GIP(1-42)NH2, read-out: hGIPR Emax, % ± SEM.
Where [5] appears, read: 0.1% bovine casein (no human serum albumin), geometric mean.
[6] abbreviates: cAMP, 37° C., 0.1% bovine casein (no human serum albumin), geometric mean, read-out: hGCGR EC50, nM (SEM, n).
Setting [7] is: cAMP, 37° C., 0.1% bovine casein and 1.0% human serum albumin, geometric mean (SEM, n), read-out: hGCGR EC50, nM (SEM, n).
Setting [8] is: HEK293, cAMP, 37° C., 0.1% bovine casein and 1.0% human serum albumin.
[9] abbreviates: 37° C., read-out: hGLP-1R EC50, nM (SEM, n).

Here are results for 4 molecules from patent US20230265151A1, “GIP/GLP1 CO-AGONIST COMPOUNDS” (priority 2020, published 2023).

Where two headings read alike, the source gives them in different places.

T2 sequence (P47871 26-477): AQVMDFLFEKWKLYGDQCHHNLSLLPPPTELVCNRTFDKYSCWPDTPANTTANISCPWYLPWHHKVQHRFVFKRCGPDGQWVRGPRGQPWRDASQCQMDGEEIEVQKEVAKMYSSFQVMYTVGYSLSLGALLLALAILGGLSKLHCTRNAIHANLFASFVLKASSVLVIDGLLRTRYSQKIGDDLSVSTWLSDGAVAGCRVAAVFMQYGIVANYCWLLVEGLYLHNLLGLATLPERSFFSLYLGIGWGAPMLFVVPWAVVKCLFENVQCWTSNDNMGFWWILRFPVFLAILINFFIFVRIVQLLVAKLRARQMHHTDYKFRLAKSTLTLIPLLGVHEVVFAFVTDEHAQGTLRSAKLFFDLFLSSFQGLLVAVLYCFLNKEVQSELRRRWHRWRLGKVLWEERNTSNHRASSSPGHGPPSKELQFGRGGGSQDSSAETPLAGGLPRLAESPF
Chain of hGLP-1R (P43220 24-463): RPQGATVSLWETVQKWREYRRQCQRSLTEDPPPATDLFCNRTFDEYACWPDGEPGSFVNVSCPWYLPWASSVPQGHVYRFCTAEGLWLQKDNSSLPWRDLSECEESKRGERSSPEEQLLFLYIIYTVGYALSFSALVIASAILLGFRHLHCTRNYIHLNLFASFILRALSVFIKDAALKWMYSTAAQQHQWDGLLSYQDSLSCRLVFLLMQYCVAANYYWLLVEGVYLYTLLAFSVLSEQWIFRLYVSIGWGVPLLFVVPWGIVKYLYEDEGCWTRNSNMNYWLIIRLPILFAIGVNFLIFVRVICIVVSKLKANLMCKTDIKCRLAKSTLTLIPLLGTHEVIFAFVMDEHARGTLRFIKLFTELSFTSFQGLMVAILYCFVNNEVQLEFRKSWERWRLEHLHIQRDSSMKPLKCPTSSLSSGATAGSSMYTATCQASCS

With `CC[C@H](C)[C@H](NC(=O)[C@H](CC(C)C)NC(=O)[C@](C)(Cc1ccc(O)cc1)NC(=O)[C@H](CCCCNC(=O)COCCOCCNC(=O)COCCOCCNC(=O)CC[C@H](NC(=O)CCCCCCCCCCCCC(=O)O)C(=O)O)NC(=O)[C@@H](NC(=O)[C@H](Cc1ccccc1)NC(=O)[C@H](CCC(=O)O)NC(=O)C(C)(C)NC(=O)[C@H](CCC(N)=O)NC(=O)[C@H](C)NC(=O)[C@H](CCCCNC(=O)COCCOCCNC(=O)COCCOCCNC(=O)CC[C@H](NC(=O)CCCCCCCCCCCCC(=O)O)C(=O)O)NC(=O)[C@H](CCCN)NC(=O)[C@H](CC(=O)O)NC(=O)[C@H](CC(C)C)NC(=O)[C@](C)(CC(C)C)NC(=O)[C@@H](NC(=O)C(C)(C)NC(=O)[C@H](Cc1ccncc1)NC(=O)[C@H](CC(=O)O)NC(=O)[C@H](CO)NC(=O)[C@@H](NC(=O)[C@](C)(Cc1ccccc1F)NC(=O)[C@@H](NC(=O)CNC(=O)[C@H](CCC(=O)O)NC(=O)C(C)(C)NC(=O)[C@@H](N)Cc1ccc(O)cc1)[C@@H](C)O)[C@@H](C)O)[C@@H](C)CC)[C@@H](C)CC)C(=O)N[C@@H](CCC(=O)O)C(=O)NCC(=O)NCC(=O)N1CCC[C@H]1C(=O)N[C@@H](CO)C(=O)N[C@@H](CO)C(=O)NCC(=O)N[C@@H](C)C(=O)N1CCC[C@H]1C(=O)N1CCC[C@H]1C(=O)N1CCC[C@H]1C(=O)N[C@@H](CO)C(N)=O` [Example 113], the Emax in assay [1] (HEK293, read-out: hGIPR Emax, % ± SEM, percent of maximal response to GIP(1-42)NH2, 0.1% bovine casein, arithmetic mean) came to 97.9 ± 3.21%. In addition, the EC50 was more than 9950 nM in assay [2] (hGCGR EC50, nM (SEM, n), cAMP, incubated at 37° C., 0.1% bovine casein (no human serum albumin), geometric mean) and 0.291 nM in assay [3] (hGLP-1R EC50, nM (SEM, n), incubated at 37° C.).

For `CC[C@H](C)[C@H](NC(=O)[C@H](CC(C)C)NC(=O)[C@](C)(Cc1ccc(O)cc1)NC(=O)[C@@H](CCC(=O)O)NC(=O)[C@@H](NC(=O)[C@H](Cc1ccc2ccccc2c1)NC(=O)[C@H](CCC(=O)O)NC(=O)C(C)(C)NC(=O)[C@H](CCC(N)=O)NC(=O)[C@H](C)NC(=O)[C@H](CCCCNC(=O)COCCOCCNC(=O)COCCOCCNC(=O)CC[C@H](NC(=O)CCCCCCCCCCCCC(=O)O)C(=O)O)NC(=O)[C@H](CCCN)NC(=O)[C@H](CC(=O)O)NC(=O)[C@H](CC(C)C)NC(=O)[C@](C)(CC(C)C)NC(=O)[C@@H](NC(=O)[C@H](CO)NC(=O)[C@H](Cc1ccncc1)NC(=O)[C@H](CC(=O)O)NC(=O)[C@H](CO)NC(=O)[C@@H](NC(=O)[C@](C)(Cc1ccccc1F)NC(=O)[C@@H](NC(=O)CNC(=O)[C@H](CCC(=O)O)NC(=O)C(C)(C)NC(=O)[C@@H](N)Cc1ccc(O)cc1)[C@@H](C)O)[C@@H](C)O)[C@@H](C)CC)[C@@H](C)CC)C(=O)N[C@@H](CCC(=O)O)C(=O)NCC(=O)NCC(=O)N[C@@H](CCCCNC(=O)COCCOCCNC(=O)COCCOCCNC(=O)CC[C@H](NC(=O)CCCCCCCCCCCCC(=O)O)C(=O)O)C(=O)N[C@@H](CO)C(=O)N[C@@H](CO)C(=O)NCC(=O)N[C@@H](C)C(=O)N1CCC[C@H]1C(=O)N1CCC[C@H]1C(=O)N1CCC[C@H]1C(=O)N[C@@H](CO)C(N)=O` [Example 99], the maximal response (Emax) in assay [1] (HEK293, percent of maximal response to GIP(1-42)NH2, 0.1% bovine casein, arithmetic mean, read-out: hGIPR Emax, % ± SEM) is 93.4 ± 1.02%; in assay [3] (HEK293, 0.1% bovine casein and 1.0% human serum albumin, 37° C.), 81.1%. The concentration for a half-maximal effect (EC50) in assay [2] (0.1% bovine casein and 1.0% human serum albumin, 37° C., geometric mean, read-out: hGCGR EC50, nM (SEM, n)) was more than 9950 nM; in assay [2] (cAMP, incubated at 37° C., 0.1% bovine casein (no human serum albumin), geometric mean, read-out: hGCGR EC50, nM (SEM, n)) it was more than 9950 nM.

`CC[C@H](C)[C@H](NC(=O)[C@H](CC(C)C)NC(=O)[C@](C)(Cc1ccc(O)cc1)NC(=O)[C@H](CCCCNC(=O)CCOCCOCCOCCOCCOCCNC(=O)CC[C@H](NC(=O)CCCCCCCCCCCCC(=O)O)C(=O)O)NC(=O)[C@@H](NC(=O)[C@H](Cc1ccccc1)NC(=O)[C@H](CCCN)NC(=O)C(C)(C)NC(=O)[C@H](CCC(N)=O)NC(=O)[C@H](C)NC(=O)[C@H](CCC(N)=O)NC(=O)[C@H](CCCN)NC(=O)[C@H](CC(=O)O)NC(=O)[C@H](CC(C)C)NC(=O)[C@](C)(CC(C)C)NC(=O)[C@@H](NC(=O)C(C)(C)NC(=O)[C@H](Cc1ccncc1)NC(=O)[C@H](CC(=O)O)NC(=O)[C@H](CO)NC(=O)[C@@H](NC(=O)[C@](C)(Cc1ccccc1F)NC(=O)[C@@H](NC(=O)CNC(=O)[C@H](CCC(=O)O)NC(=O)C(C)(C)NC(=O)[C@@H](N)Cc1ccc(O)cc1)[C@@H](C)O)[C@@H](C)O)[C@@H](C)CC)[C@@H](C)CC)C(=O)N[C@@H](CCCCNC(=O)CCOCCOCCOCCOCCOCCNC(=O)CC[C@H](NC(=O)CCCCCCCCCCCCC(=O)O)C(=O)O)C(=O)NCC(=O)NCC(=O)N1CCC[C@H]1C(=O)N[C@@H](CO)C(=O)N[C@@H](CO)C(=O)NCC(=O)N[C@@H](C)C(=O)N1CCC[C@H]1C(=O)N1CCC[C@H]1C(=O)N1CCC[C@H]1C(=O)N[C@@H](CO)C(N)=O` [Example 467]: the maximal effect (Emax) in assay [1] (setting [4]) was determined as 88.4%; in assay [3] (setting [8]), 97.9%; in assay [3] (HEK293, cAMP, 37° C., 0.1% bovine casein, arithmetic mean), 110%. Also, the concentration giving a half-maximal response (EC50) in assay [1] (setting [5]) was 0.0113 nM; in assay [1] (0.1% bovine casein and 1.0% human serum albumin, geometric mean (SEM, n)), 0.35 nM; in assay [2] (setting [6]), more than 10100 nM; in assay [2] (setting [7]), more than 10100 nM; in assay [3] (setting [9]) it was 0.131 nM.

In the case of `CCCCCCCCCCCC(=O)N[C@@H](CCC(=O)NCCOCCOCC(=O)NCCOCCOCC(=O)NCCCC[C@H](NC(=O)[C@H](CCCN)NC(=O)[C@H](CC(=O)O)NC(=O)[C@H](CC(C)C)NC(=O)[C@](C)(CC(C)C)NC(=O)[C@@H](NC(=O)C(C)(C)NC(=O)[C@H](Cc1ccncc1)NC(=O)[C@H](CC(=O)O)NC(=O)[C@H](CO)NC(=O)[C@@H](NC(=O)[C@](C)(Cc1ccccc1F)NC(=O)[C@@H](NC(=O)CNC(=O)[C@H](CCC(=O)O)NC(=O)C(C)(C)NC(=O)[C@@H](N)Cc1ccc(O)cc1)[C@@H](C)O)[C@@H](C)O)[C@@H](C)CC)C(=O)N[C@@H](C)C(=O)N[C@@H](CCC(N)=O)C(=O)NC(C)(C)C(=O)N[C@@H](Cc1ccncc1)C(=O)N[C@@H](Cc1ccccc1)C(=O)N[C@H](C(=O)N[C@H](CCC(=O)O)C(=O)N[C@@](C)(Cc1ccc(O)cc1)C(=O)N[C@@H](CC(C)C)C(=O)N[C@H](C(=O)N[C@@H](CCCCNC(=O)COCCOCCNC(=O)COCCOCCNC(=O)CC[C@H](NC(=O)CCCCCCCCCCC)C(=O)O)C(=O)NCC(=O)NCC(=O)N1CCC[C@H]1C(=O)N[C@@H](CO)C(=O)N[C@@H](CO)C(=O)NCC(=O)N[C@@H](C)C(=O)N1CCC[C@H]1C(=O)N1CCC[C@H]1C(=O)N1CCC[C@H]1C(=O)N[C@@H](CO)C(N)=O)[C@@H](C)CC)[C@@H](C)CC)C(=O)O` [Example 416], the Emax in assay [1] (setting [4]) was 83%; in assay [1] (HEK293, cAMP, 0.1% bovine casein, percent of maximal response to GIP(1-42)NH2, arithmetic mean, read-out: hGIPR Emax, % ± SEM), 99%; in assay [3] (setting [8]) it was 109%. The concentration for a half-maximal effect (EC50) in assay [1] (setting [5]) is 0.0214 nM; in assay [2] (setting [6]) it was more than 9950 nM; in assay [2] (setting [7]), more than 9950 nM; in assay [3] (setting [9]), 0.332 nM.
